Structures are written as SMILES. Activity calls are given as the source filed them. No cut-off for these calls is given here.

Data set [1] deals with HCT-116. Kind of data set: Induction of cell cycle arrest in human HCT-116 cells assessed as accumulation of cells G0/G1 phase at 250 nM (reference value: 66.45%). Format: functional.
Data set [2] has as its system HCT-116. Kind of data set: Induction of cell cycle arrest in human HCT-116 cells assessed as accumulation of cells G0/G1 phase at 2000 nM incubated for 1 hr followed by exposure to 2 Gy gamma irradiation and measured after 48 hrs propidium iodide staining based analysis (reference value: 60.01%). It counts as functional. To be noted: time 49 hrs.
Data set [3] deals with HCT-116. Kind of data set: Induction of cell cycle arrest in human HCT-116 cells assessed as accumulation of cells S phase at 250 nM (reference value: 19.72%). Format: functional.
Data set [4] has as its system HCT-116. Kind of data set: Induction of cell cycle arrest in human HCT-116 cells assessed as accumulation of cells G2/M phase at 2000 nM (reference value: […]%). It counts as functional.
The test system of data set [5] is HCT-116. Kind of data set: Induction of cell cycle arrest in human HCT-116 cells assessed as accumulation of cells G0/G1 phase at 500 nM (reference value: 66.45%). It counts as functional.
Data set [6] relates to HCT-116. Kind of data set: Induction of cell cycle arrest in human HCT-116 cells assessed as accumulation of cells S phase at 2000 nM (reference value: 19.72%). Format: functional.
Data set [7] concerns HCT-116. Kind of data set: Induction of cell cycle arrest in human HCT-116 cells assessed as accumulation of cells S phase at 2000 nM incubated for 1 hr followed by exposure to 2 Gy gamma irradiation and measured after 48 hrs propidium iodide staining based analysis (reference value: 21.35%). It counts as functional. To be noted: time 49 hrs.
Data set [8] concerns HCT-116. Kind of data set: Induction of cell cycle arrest in human HCT-116 cells assessed as accumulation of cells S phase at 500 nM (reference value: 19.72%). It counts as functional.
The subject of data set [9] is HCT-116. Kind of data set: Induction of cell cycle arrest in human HCT-116 cells assessed as accumulation of cells S phase at 1000 nM (reference value: 19.72%). Format: functional.
Data set [10] relates to HCT-116. Kind of data set: Inhibition of bleomycin-induced DNA-double stranded breaks in human HCT-116 cells assessed as reduction in gammaH2AX level pretreated for 1 hrs followed by bleomycin addition and measured after 6 hrs Western blot analysis. It counts as functional, cell-based. Particulars: dose 0.03-30 µM, time 7.0 hrs.
Data set [11] relates to HCT-116. Kind of data set: Induction of cell cycle arrest in human HCT-116 cells assessed as accumulation of cells G2/M phase at 500 nM (reference value: […]%). Format: functional.
In data set [12] the test system is HCT-116. Kind of data set: Induction of cell cycle arrest in human HCT-116 cells assessed as accumulation of cells S phase at 250 nM incubated for 1 hr followed by exposure to 2 Gy gamma irradiation and measured after 48 hrs propidium iodide staining based analysis (reference value: 21.35%). Format: functional. Particulars: time 49 hrs.
The subject of data set [13] is HCT-116. Kind of data set: Inhibition of colony formation in human HCT-116 cells at […] preincubated with compound for 1 hr followed by exposure to 2 Gy gamma irradiation and measured after 7 days by crystal violet staining based chemiluminescence assay relative to control. It counts as functional. Particulars: HCT-116, light or radiation study, dose 0.25 µM, time 169 hrs.

Data set [14] deals with NCI-H460. Kind of data set: Antitumor activity against human NCI-H460 cells xenografted in BALB/ c nude mouse assessed as inhibition of tumor growth at 100 mg/kg, po administered once daily with 2 Gy irradiation and measured upto 7 days by vernier caliper analysis. Format: functional, organism-based. To be noted: time <= 7.0 day.
Data set [15] concerns HCT-116. Kind of data set: Induction of cell cycle arrest in human HCT-116 cells assessed as accumulation of cells G2/M phase at 1000 nM (reference value: […]%). It counts as functional.
Data set [16] deals with HCT-116. Kind of data set: Induction of cell cycle arrest in human HCT-116 cells assessed as accumulation of cells G2/M phase at 500 nM incubated for 1 hr followed by exposure to 2 Gy gamma irradiation and measured after 48 hrs propidium iodide staining based analysis (reference value: 18.65%). It counts as functional. To be noted: time 49 hrs.
Data set [17] concerns HCT-116. Kind of data set: Induction of cell cycle arrest in human HCT-116 cells assessed as accumulation of cells S phase at 1000 nM incubated for 1 hr followed by exposure to 2 Gy gamma irradiation and measured after 48 hrs propidium iodide staining based analysis (reference value: 21.35%). It counts as functional. To be noted: time 49 hrs.
For data set [18], the system named is HCT-116. Kind of data set: Induction of cell cycle arrest in human HCT-116 cells assessed as accumulation of cells S phase at 500 nM incubated for 1 hr followed by exposure to 2 Gy gamma irradiation and measured after 48 hrs propidium iodide staining based analysis (reference value: 21.35%). It counts as functional. To be noted: time 49 hrs.
Data set [19] has as its system HCT-116. Kind of data set: Induction of cell cycle arrest in human HCT-116 cells assessed as accumulation of cells G0/G1 phase at 1000 nM (reference value: 66.45%). Format: functional.
Data set [20] concerns HCT-116. Kind of data set: Induction of cell cycle arrest in human HCT-116 cells assessed as accumulation of cells G0/G1 phase at 2000 nM (reference value: 66.45%). Format: functional.
Data set [21] relates to HCT-116. Kind of data set: Induction of cell cycle arrest in human HCT-116 cells assessed as accumulation of cells G0/G1 phase at 1000 nM incubated for 1 hr followed by exposure to 2 Gy gamma irradiation and measured after 48 hrs propidium iodide staining based analysis (reference value: 60.01%). It counts as functional. To be noted: time 49 hrs.
Data set [22] has as its system HCT-116. Kind of data set: Inhibition of colony formation in human HCT-116 cells preincubated with compound for 1 hr followed by exposure to 2 Gy gamma irradiation and measured after 7 days by crystal violet staining based chemiluminescence assay. Format: functional, cell-based. To be noted: HCT-116, light or radiation study.
Data set [23] relates to HCT-116. Kind of data set: Induction of cell cycle arrest in human HCT-116 cells assessed as accumulation of cells G2/M phase at 2000 nM incubated for 1 hr followed by exposure to 2 Gy gamma irradiation and measured after 48 hrs propidium iodide staining based analysis (reference value: 18.65%). It counts as functional. To be noted: time 49 hrs.
Data set [24] deals with HCT-116. Kind of data set: Induction of cell cycle arrest in human HCT-116 cells assessed as accumulation of cells G2/M phase at 1000 nM incubated for 1 hr followed by exposure to 2 Gy gamma irradiation and measured after 48 hrs propidium iodide staining based analysis (reference value: 18.65%). Format: functional. Particulars: time 49 hrs.
Data set [25] has as its system HCT-116. Kind of data set: Induction of cell cycle arrest in human HCT-116 cells assessed as accumulation of cells G2/M phase at 250 nM (reference value: […]%). Format: functional.
The subject of data set [26] is A549. Kind of data set: Antitumor activity against human A549 cells xenografted in BALB/c nude mouse assessed as tumor growth inhibition at 7.5 mg/kg, po administered once daily measured upto 26 days in presence of paclitaxel by vernier caliper analysis relative to control. Format: functional. To be noted: A549, 624 h, time <= 26 day, read-out: TGI.
Data set [27] relates to HCT-116. Kind of data set: Induction of cell cycle arrest in human HCT-116 cells assessed as accumulation of cells G0/G1 phase at 500 nM incubated for 1 hr followed by exposure to 2 Gy gamma irradiation and measured after 48 hrs propidium iodide staining based analysis (reference value: 60.01%). Format: functional. Particulars: time 49 hrs.
In data set [28] the test system is HCT-116. Kind of data set: Induction of cell cycle arrest in human HCT-116 cells assessed as accumulation of cells G2/M phase at 250 nM incubated for 1 hr followed by exposure to 2 Gy gamma irradiation and measured after 48 hrs propidium iodide staining based analysis (reference value: 18.65%). Format: functional. To be noted: time 49 hrs.
In data set [29] the test system is BT-474. Kind of data set: Antitumor activity against human BT-474 cells xenografted in BALB/c nude mouse assessed as inhibition of tumor growth at 0.25 to 12.5 mg/kg, po measured upto 10 days in presence of liposome doxorubicin by vernier caliper analysis. Format: functional, organism-based. To be noted: dose lower […], dose upper 12.5 mg/kg, time <= 10.0 day.

Data set [30] relates to HCT-116. Kind of data set: Induction of cell cycle arrest in human HCT-116 cells assessed as accumulation of cells G0/G1 phase at 250 nM incubated for 1 hr followed by exposure to 2 Gy gamma irradiation and measured after 48 hrs propidium iodide staining based analysis (reference value: 60.01%). Particulars: time 49 hrs. Format: functional.
The nature of data set [31]: Toxicity in BALB/c nude mouse assessed as effect on body weight loss at 15 mg/kg, po measured upto 28 days […]. Format: organism-based. To be noted: in vivo, 672 h, time < 28 day.
Data set [32] is described as follows: in vivo. To be noted: Sprague-Dawley, rat, iv, 5 mg/kg.
Data set [33] in a line: in vivo. To be noted: Sprague-Dawley, rat, iv, 5 mg/kg. The source holds these as a separate data set.
The conditions of data set [34]: rat, in vivo, po, 5 mg/kg, 24 h.
The subject of data set [35] is A549. Kind of data set: Antitumor activity against human A549 cells xenografted in BALB/c nude mouse assessed as tumor growth inhibition at 15 mg/kg, po administered once daily measured upto 26 days in presence of paclitaxel by vernier caliper analysis relative to control. It counts as functional. Particulars: A549, 624 h, time <= 26 day, read-out: TGI.
Data set [36] can be described thus: in vivo. Particulars: Sprague-Dawley, rat, po, 5 mg/kg.
Data set [37] in a line: in vivo. To be noted: Sprague-Dawley, rat, po, 5 mg/kg. The source holds these as a separate data set.

Take `Cc1cc(-c2cnn(C)c2)ncc1Nc1ncc2c(n1)n(C1CCOCC1)c(=O)n2C`: the Activity in [1] is recorded as 65.15%; in data set [2], 24.76%; in data set [3], 19.94%; in [4] it was 16.46%; in data set [5] it was 60.76%; in data set [6], 22.92%. The Activity in data set [7] is 9.03%; in [8] it was 23.44%; in data set [9], 21.75%; in [11], 15.5%; in data set [12], 22.74%; in [15], 14.91%. Moreover, the Activity in data set [16] is on record as 30.99%; in data set [17] it was 13.82%; in data set [18], 25.63%; in data set [19], 61.36%; in data set [20], 60.62%; in [21] it was 32.64%. The Activity was determined as 69.21% in data set [23]; 53.54% in data set [24]; 15.81% in data set [25]; 45.35% in data set [27]; 21.65% in data set [28]; 53.41% in [30]. Besides, the inhibition entry in data set [10] is “Dose-Dependent Effect”. Besides, in data set [13], the inhibition at […] was determined as 99.4%. The result in data set [14] and in [29] was Active. Besides, the IC50 in [22] turned out to be 0.0333 µM. Further, the inhibition in vivo at 7.5 mg/kg in data set [26] was 78.8%.

On to `Cc1cc2ncnn2cc1Nc1ncc2c(n1)n(C1CCOCC1)c(=O)n2C` [AZD-7648], for which the Activity result in data set [31] is given as “Non-Toxic”. The results for the Cmax at 24 h in data set [32] and in data set [36] were 2620 ng/mL and 836 ng/mL, respectively. In data set [33], the AUC(0-t) at 24 h came to 3150 ng·h/mL. Also, in data set [13], the inhibition at […] is 98.2%. Further, the result in [14] was Active. This compound also registered an AUCt in data set [34] of 2458.98 ng·h/mL. For the same compound, the inhibition in vivo at 15 mg/kg in data set [35] is 46.1%. The IC50 in data set [22] was 0.0381 µM. For the same compound, the bioavailability at 24 h in data set [37] was 78.1%.

The record behind these values is ChEMBL document CHEMBL5532664, “Discovery, Optimization, and Evaluation of Potent and Selective DNA-PK Inhibitors in Combination with Chemotherapy or Radiotherapy for the Treatment of Malignancies” (J Med Chem, 2024).
